Consider one substance from patent publication US20200338144A1, “AGENT FOR PREVENTING OR TREATING SMALL INTESTINAL INJURY INDUCED BY NON-STEROIDAL ANTI-INFLAMMATORY DRUG AND PROTON PUMP INHIBITOR” (priority 2017, published 2020).

The test has as its system small intestinal injury induced by an NSAID and a PPI. The test can be described thus: Test 1: rate of change of hematocrit values in rats given an NSAID and a PPI. Format: in vivo, Wister male rats. The following applies: bacteria 1×10^9 cfu/animal oral once a day. As for the experimental part:
Frozen stocks of the following bacterial strains were statically cultured in GAM broth at 37° C. for 24 hours: the Bifidobacterium bifidum G9-1 strain (B. bifidum G9-1) (Accession No. NITE BP-817), the Bifidobacterium longum reference strain JCM 1217^T (B. longum JCM 1217) (purchased from Japan Collection of Microorganisms (JCM), RIKEN BioResource Research Center), the Bifidobacterium infantis reference strain JCM 1222^T (B. infantis JCM 1222) (purchased from JCM), the Bifidobacterium adolescentis reference strain JCM 1275^T (B. adolescentis JCM 1275) (purchased from JCM), and the Bifidobacterium dentium reference strain JCM 1195^T (B. dentium JCM 1195) (purchased from JCM). Each of the bacterial liquid cultures was inoculated into fresh GAM broth at a ratio (by volume) of liquid culture to GAM broth of 1:100, and statically cultured at 37° C. for 24 hours. […]
The centrifuged bacterial cells were suspended in 0.75 mL of physiological saline. […] The colonies appeared on the plates were counted, and the number of viable bacteria was calculated based on the dilution factor. […]
At the start of the experiments, the blood was collected from the tail vein with hematocrit capillary tubes (Thermo Fisher Scientific K.K.) to measure hematocrit values. […] After grouping, the body weight of the animals was measured for nine days, and one of the PPIs (10 mg/kg) was intraperitoneally administered twice a day. […]

As for Bifidobacterium longum, the “inhibitory effect on small intestinal injury (hematocrit reduction) induced by ibuprofen and lansoprazole” value (ibuprofen 10 mg/kg oral + lansoprazole 10 mg/kg i.p. twice a day, FIG. 7) is “higher inhibitory effect”. Also, for the setting “ibuprofen 10 mg/kg oral + omeprazole 10 mg/kg i.p. twice a day, FIG. 4 (n=5)”, the “inhibitory effect on small intestinal injury (hematocrit reduction) induced by ibuprofen and omeprazole” value is “higher inhibitory effect”.
